Experiment: recombinant barcode read abundance after kanamycin selection (control-corrected) (log10(CPM+1)); higher = more efficient recombination; sequences stand for … in AGTGCAGAGAAAATCGGCCAGTTTTCTCTGCCTGCAGTCCGCATGCCGT…AGATTTATGCAGCGGACTGCCTTTCTCCCAAAGTGATAAACCGGACAGTATCATGGACCGGTTTTCCCGGTAATCCGTATTTGCAAGGTTGGTTTCACT; site = the 11-nt target
Outline: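 For this pooled screen, each oligo contained a promoter, a target, a barcode and the J23119-driven first 104 bases of the bridge RNA. Gibson cloning placed it into a vector supplying the remaining 73 bp and a T7-inducible recombinase, and the pool was co-electroporated into E. coli with a donor plasmid. Recombination efficiency is derived from barcode counts per million at recombinant junctions after averaging and control correction, and is expressed on a log scale as log10(CPM+1), with selection on chloramphenicol/ampicillin/kanamycin plus 0.1 mM IPTG against a chloramphenicol/ampicillin LB agar control.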
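Note: IS621 recombinase and bridge RNA in Escherichia coli cells.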

Sequence | recombinant barcode read abundance (log10)
TCGCGGCCTTGGGTTCTAACCTGTTGCCT (site GCGCGGCCTAG) | 0.1
TCGCGGCCTTGGGTTCTAACCTGTTGCCT (site TCGCGGCCTAG) | 0.0408
TCGCGTCCTTGGGTTCTAACCTGTTGCCG (site ACGCGTCCTCG) | 0.116
TCGCGTCCTTGGGTTCTAACCTGTTGCCG (site TCGCGTCCTCG) | 1.41
TCGCTAGCTTGGGTTCTAACCTGTTGCGG (site CCGCTACCTCC) | 1.83
TCGCTAGCTTGGGTTCTAACCTGTTGCGG (site TCGCTAGCTCC) | 0.657
TCGGACACTTGGGTTCTAACCTGTTGCCA (site TCGGACACTTG) | 1.89
TCGGACACTTGGGTTCTAACCTGTTGCCA (site TGGGACTCTTG) | 0.0505
TCGGAGGCTTGGGTTCTAACCTGTTGCTG (site TCAGAGGCTCA) | 0.774
TCGGAGGCTTGGGTTCTAACCTGTTGCTG (site TCCGAGGCTCA) | 0.325
TCGGAGGCTTGGGTTCTAACCTGTTGCTG (site TCGGAGGCTCA) | 0.442
TCGGAGGCTTGGGTTCTAACCTGTTGCTG (site TCTGAGGCTCA) | 0.374
TCGGAGTCTTGGGTTCTAACCTGTTGCCT (site TCGGAGTCTAA) | 0.128
TCGGAGTCTTGGGTTCTAACCTGTTGCCT (site TCGGAGTCTAC) | 1.06
TCGGAGTCTTGGGTTCTAACCTGTTGCCT (site TCGGAGTCTAG) | 2.23
TCGGAGTCTTGGGTTCTAACCTGTTGCCT (site TCGGAGTCTAT) | 0.503
TCGGATACTTGGGTTCTAACCTGTTGCCA (site TAGGACACTTG) | 0.0618
TCGGATACTTGGGTTCTAACCTGTTGCCA (site TCGGATACTTG) | 0.456
TCGGCCTCTTGGGTTCTAACCTGTTGCTA (site CGTCTAGCTAT) | 0.054
TCGGCCTCTTGGGTTCTAACCTGTTGCTA (site TCGGCCTCTTA) | 0.877
TCGGCGACTTGGGTTCTAACCTGTTGCCT (site TCAGCGACTAG) | 0.11
TCGGCGACTTGGGTTCTAACCTGTTGCCT (site TCCGCGACTAG) | 0.0866

Sequence | recombinant barcode read abundance (log10)
TCGGCGACTTGGGTTCTAACCTGTTGCCT (site TCGGCGACTAG) | 0.0143
TCGGCGACTTGGGTTCTAACCTGTTGCCT (site TCTGCGACTAG) | 0.291
TCGGGAACTTGGGTTCTAACCTGTTGCCT (site TCGCGAACTAG) | 0.502
TCGGGAACTTGGGTTCTAACCTGTTGCCT (site TCGGGAACTAG) | 0.34
TCGGGATCTTGGGTTCTAACCTGTTGCCT (site ACGGGATCTAG) | 0.365
TCGGGATCTTGGGTTCTAACCTGTTGCCT (site CCGGGATCTAG) | 0.184
TCGGGATCTTGGGTTCTAACCTGTTGCCT (site GCGGGATCTAG) | 0.0188
TCGGGATCTTGGGTTCTAACCTGTTGCCT (site TCGGGATCTAG) | 1.05
TCGGTGACTTGGGTTCTAACCTGTTGCCT (site ACGGTGACTAG) | 0.658
TCGGTGACTTGGGTTCTAACCTGTTGCCT (site CCGGTGACTAG) | 0.0364
TCGGTGACTTGGGTTCTAACCTGTTGCCT (site GCGGTGACTAG) | 0.0708
TCGGTGACTTGGGTTCTAACCTGTTGCCT (site TCGGTGACTAG) | 0.87
TCGTACCCTTGGGTTCTAACCTGTTGCGA (site TCGAACCCTTC) | 0.256
TCGTACCCTTGGGTTCTAACCTGTTGCGA (site TCGCACCCTTC) | 0.0875
TCGTACCCTTGGGTTCTAACCTGTTGCGA (site TCGGACCCTTC) | 0.0548
TCGTACCCTTGGGTTCTAACCTGTTGCGA (site TCGTACCCTTC) | 0.617
TCGTCTCCTTGGGTTCTAACCTGTTGCTT (site TCGTCTCCTAA) | 0
TCGTCTCCTTGGGTTCTAACCTGTTGCTT (site TTATCTCCTAA) | 0.386
TCGTGCACTTGGGTTCTAACCTGTTGCCT (site TCGTGCACTAG) | 0.215
TCGTGCACTTGGGTTCTAACCTGTTGCCT (site TCGTGCCCTAG) | 0.448
TCGTGCACTTGGGTTCTAACCTGTTGCCT (site TCGTGCGCTAG) | 0.0852
TCGTGCACTTGGGTTCTAACCTGTTGCCT (site TCGTGCTCTAG) | 0.178

Sequence | recombinant barcode read abundance (log10)
TCGTGCCCTTGGGTTCTAACCTGTTGCTT (site TCGTGCCCTAA) | 0.0384
TCGTGCCCTTGGGTTCTAACCTGTTGCTT (site TCGTGCCCTCA) | 1.5
TCGTGCTCTTGGGTTCTAACCTGTTGCCT (site TCGTGCACTAG) | 0.0667
TCGTGCTCTTGGGTTCTAACCTGTTGCCT (site TCGTGCCCTAG) | 0.282
TCGTGCTCTTGGGTTCTAACCTGTTGCCT (site TCGTGCGCTAG) | 0.193
TCGTGCTCTTGGGTTCTAACCTGTTGCCT (site TCGTGCTCTAG) | 0.0894
TCTAACCCTTGGGTTCTAACCTGTTGCAT (site TCTAAACCTAT) | 0.0654
TCTAACCCTTGGGTTCTAACCTGTTGCAT (site TCTAACCCTAT) | 0.251
TCTAACCCTTGGGTTCTAACCTGTTGCAT (site TCTAAGCCTAT) | 0.028
TCTAACCCTTGGGTTCTAACCTGTTGCAT (site TCTAATCCTAT) | 0.0655
TCTAATCCTTGGGTTCTAACCTGTTGCAT (site TCTAAACCTAT) | 0.11
TCTAATCCTTGGGTTCTAACCTGTTGCAT (site TCTAACCCTAT) | 0.0519
TCTAATCCTTGGGTTCTAACCTGTTGCAT (site TCTAAGCCTAT) | 0.0992
TCTAATCCTTGGGTTCTAACCTGTTGCAT (site TCTAATCCTAT) | 0.025
TCTAATTCTTGGGTTCTAACCTGTTGCAT (site TCTAATTCTAT) | 0.0913
TCTAATTCTTGGGTTCTAACCTGTTGCAT (site TCTGACTCTAT) | 0.186
TCTAATTCTTGGGTTCTAACCTGTTGCGT (site TCTAATTCTAC) | 0.095
TCTAATTCTTGGGTTCTAACCTGTTGCGT (site TCTCATTCTAC) | 0.162
TCTAATTCTTGGGTTCTAACCTGTTGCGT (site TCTGATTCTAC) | 0.899
TCTAATTCTTGGGTTCTAACCTGTTGCGT (site TCTTATTCTAC) | 0.047
TCTAGAGCTTGGGTTCTAACCTGTTGCCT (site TCTAGAACTAG) | 0.0712
TCTAGAGCTTGGGTTCTAACCTGTTGCCT (site TCTAGACCTAG) | 0.228

Sequence | recombinant barcode read abundance (log10)
TCTAGAGCTTGGGTTCTAACCTGTTGCCT (site TCTAGAGCTAG) | 0.0183
TCTAGAGCTTGGGTTCTAACCTGTTGCCT (site TCTAGATCTAG) | 0.339
TCTAGGACTTGGGTTCTAACCTGTTGCAA (site CGACAATCTAA) | 0.29
TCTAGGACTTGGGTTCTAACCTGTTGCAA (site TCTAGGACTTT) | 0.52
TCTCACGCTTGGGTTCTAACCTGTTGCCT (site TCGCACGCTAG) | 0.0772
TCTCACGCTTGGGTTCTAACCTGTTGCCT (site TCTCACGCTAG) | 0.964
TCTCACTCTTGGGTTCTAACCTGTTGCCT (site TCACACTCTAG) | 0.0111
TCTCACTCTTGGGTTCTAACCTGTTGCCT (site TCCCACTCTAG) | 0.504
TCTCACTCTTGGGTTCTAACCTGTTGCCT (site TCGCACTCTAG) | 0.0924
TCTCACTCTTGGGTTCTAACCTGTTGCCT (site TCTCACTCTAG) | 1.54
TCTCATGCTTGGGTTCTAACCTGTTGCAT (site GACGGCACTCC) | 0.0135
TCTCATGCTTGGGTTCTAACCTGTTGCAT (site TCTCATGCTAT) | 0.224
TCTCGGCCTTGGGTTCTAACCTGTTGCCT (site TCTCAGCCTAG) | 0.0701
TCTCGGCCTTGGGTTCTAACCTGTTGCCT (site TCTCCGCCTAG) | 0.394
TCTCGGCCTTGGGTTCTAACCTGTTGCCT (site TCTCGGCCTAG) | 0.202
TCTCGGCCTTGGGTTCTAACCTGTTGCCT (site TCTCTGCCTAG) | 0.0561
TCTGACTCTTGGGTTCTAACCTGTTGCAT (site TCTAATTCTAT) | 0.0501
TCTGACTCTTGGGTTCTAACCTGTTGCAT (site TCTGACTCTAT) | 1.59
TCTGAGTCTTGGGTTCTAACCTGTTGCTG (site GCTGAGGCTCA) | 0.141
TCTGAGTCTTGGGTTCTAACCTGTTGCTG (site TCTGAGTCTCA) | 0.858

From the supplement of paper PMC11208160
